# How the values were obtained:
# HIF1α = HIF1α expression in IHMGECs by western blot; type: cell-based, human; parameters: HIF1α accumulation in IHMGECs, combination of Roxa and low O2: dose or concentration left out as unconfirmed
# Description: Authenticated IHMGECs were grown and passaged in keratinocyte serum-free medium (KSFM) with 5 ng/mL epidermal growth factor (EGF) and 50 μg/mL bovine pituitary extract (BPE) (Thermo Fisher Scientific, Waltham, Mass.) under 21% O2 (normoxia) [Liu et al. (2010) Investigative ophthalmology & visual science 51:3993-4005; McDermott et al. (2018) Current eye research 43:1097-1101; Liu et al. (2013) Investigative ophthalmology & visual science 54:2541-2550]. Upon reaching 60% to 70% confluence, culture media were replaced by a 1:1 mixture of Dulbecco's modified Eagle's medium and Ham's F12 (DMEM/F12, Corning Life Sciences, Tewksbury, Mass.), supplemented with 10% fetal bovine serum (FBS, Atlanta Biologicals, Flowery Branch, Ga.) [Sullivan et al. (2014) Investigative ophthalmology & visual science 55:3866-3877; Liu et al. (2014) JAMA ophthalmology 132:226-228]. […] Culture plates of cells in the hypoxic condition were incubated inside hypoxia chambers filled with a premade 1% O2, 5% CO2 and 94% N2 gas mixture (Linde Gas North America, Hammond, Ind.), according to published protocols in Liu et al. (2019) The ocular surface 17(2):310-317 and Wright and Shay (2006) Nat Protoc 1:2088-2090. Following cell medium changes, the chambers were re-flushed with the gas mixture before returning to the incubator. […] Cell culture experiments (n=3 wells/treatment) were repeated at least 3 times.
# […] The cells were lysed in 2× Laemmli sample buffer (Bio-Rad Laboratories, Hercules, Calif.) and sonicated to extract nuclear protein [Andersen et al. (2002) Current biology: CB 12:1-11]. Human hepatocellular carcinoma cell lines (HepG2 cells) (America Type Culture Collection, Manassas, Va.), which express high concentration of HIF1α under CoCl2 stimulation for 4 hours [Yoo et al. (2014) Journal of cellular biochemistry 115:1147-1158], were used as a positive control for HIF1α antibody. The CoCl2 was purchased from Sigma-Aldrich Corp (St. Louis, Mo.). Cell lysates were then evaluated for HIF1α (1:1000, BD Biosciences, San Jose, Calif.) or β-actin (1:10,000, Cell Signaling Technology) expression. […]
# IHMGECs = test: HPTLC analysis of nonpolar lipids and phospholipids in IHMGEC lipid extracts; type: cell-based, human; details: Roxa, 4 days
# Description: Authenticated IHMGECs were grown and passaged in keratinocyte serum-free medium (KSFM) with 5 ng/mL epidermal growth factor (EGF) and 50 μg/mL bovine pituitary extract (BPE) (Thermo Fisher Scientific, Waltham, Mass.) under 21% O2 (normoxia) [Liu et al. (2010) Investigative ophthalmology & visual science 51:3993-4005; McDermott et al. (2018) Current eye research 43:1097-1101; Liu et al. (2013) Investigative ophthalmology & visual science 54:2541-2550]. Upon reaching 60% to 70% confluence, culture media were replaced by a 1:1 mixture of Dulbecco's modified Eagle's medium and Ham's F12 (DMEM/F12, Corning Life Sciences, Tewksbury, Mass.), supplemented with 10% fetal bovine serum (FBS, Atlanta Biologicals, Flowery Branch, Ga.) [Sullivan et al. (2014) Investigative ophthalmology & visual science 55:3866-3877; Liu et al. (2014) JAMA ophthalmology 132:226-228]. Cells were cultured for 4-10 days under 21% O2 (normoxic) or 1% O2 (hypoxic) conditions. Culture plates of cells in the hypoxic condition were incubated inside hypoxia chambers filled with a premade 1% O2, 5% CO2 and 94% N2 gas mixture (Linde Gas North America, Hammond, Ind.), according to published protocols in Liu et al. (2019) The ocular surface 17(2):310-317 and Wright and Shay (2006) Nat Protoc 1:2088-2090. Following cell medium changes, the chambers were re-flushed with the gas mixture before returning to the incubator. Cells were cultured in the presence or absence of 50 μM Roxa (Selleck Chemical, Houston, Tex.) under normoxic or hypoxic conditions for 4 to 10 days. Cell culture experiments (n=3 wells/treatment) were repeated at least 3 times.
# Cells seeded in 10-cm polystyrene-coated dishes (Corning, Falcon) were extracted with chloroform and methanol, and the lipid extractions were separated by high-performance thin-layer chromatography (HPTLC), as previously described in Liu et al. Toxicology 2014; 320:1-5, Liu and Ding (2014) Investigative ophthalmology & visual science 55:5596-5601, and Liu et al. (2015) Cornea 34:342-346. In brief, for nonpolar lipid analysis, the plate (Silica Gel 60, Merck, Darmstadt, Germany) was developed in hexane: diethyl ether: acetic acid (80:20:1.5, vol/vol/vol) alone. For phospholipids analysis, the plate was developed sequentially in chloroform:ethanol:water (60:30:5 vol/vol/vol) and then hexane:diethyl ether:acetic acid (80:20:1.5, vol/vol/vol) [Liu and Ding (2014) Investigative ophthalmology & visual science 55:5596-5601]. Bands were visualized according to published protocols [Ponec et al. (1988) Journal of lipid research 29:949-961], and the intensities of bands were quantified using ImageJ [Liu and Ding (2014) Investigative ophthalmology & visual science 55:5596-5601].
# To examine whether 1% O2 exposure and/or Roxa administration stimulate the accumulation of neutral lipids within IHMGECs [Liu et al. (2019) Ocul Surf 17:310-317], IHMGECs were treated with Roxa ([…]) in either normoxic (21% O2) or hypoxic (1% O2) environments conditions for 4 days.
# [1] = under either normoxic or hypoxic conditions, vs controls
compound,measurement,setting,value
"Cc1nc(C(=O)NCC(=O)O)c(O)c2ccc(Oc3ccccc3)cc12 [Roxa, roxadustat]","HIF1α expression in IHMGECs, Roxa compared with low O2 alone","HIF1α; 21% O2, 6 hours, vs 1% O2 alone",significantly more HIF1α expression than low O2 alone
same,"HIF1α accumulation in IHMGECs, combination of Roxa and low O2",HIF1α; 6 hours,greatest accumulation
same,HIF1α expression in IHMGECs (band intensity normalized to β-actin),"HIF1α; Roxa (10 μM elsewhere in the source), normoxic 21% O2, 6 hours, vs control",significantly increased
same,amount of cholesterol esters in IHMGECs,IHMGECs,Neither Roxa nor 1% O2 had any effect
same,amount of lysophosphatidylcholines in IHMGECs,IHMGECs,Neither Roxa nor 1% O2 had any effect
same,amount of phosphatidic acid in IHMGECs,IHMGECs,Neither Roxa nor 1% O2 had any effect
same,amount of phosphatidylcholine in IHMGECs,IHMGECs,Neither Roxa nor 1% O2 had any effect
same,amount of phosphatidylethanolamine in IHMGECs,IHMGECs,Neither Roxa nor 1% O2 had any effect
same,amount of phosphatidylinositol in IHMGECs,IHMGECs,Neither Roxa nor 1% O2 had any effect
same,amount of wax esters in IHMGECs,IHMGECs,Neither Roxa nor 1% O2 had any effect
same,expression of unidentified polar lipids in IHMGECs (HPTLC),IHMGECs,appeared to enhance
same,levels of free fatty acids (FFAs) in IHMGECs (HPTLC),IHMGECs; [1],increased
same,levels of triglycerides in IHMGECs (HPTLC),IHMGECs; [1],increased

# From patent publication US20220347167A1, “A NEW TREATMENT FOR MEIBOMIAN GLAND DYSFUNCTION” (The Schepens Eye Research Institute, Inc., priority 2019, published 2022)
